Reference: patent publication US20090214670A1, “Rhcc peptide and uses thereof” (Optovent AB, priority 2005, published 2009)

How the values were obtained:
[1] = system: RHCC; test: filtering experiment: excess metal complex removed via size exclusion filters, absorption spectra; type: binding, Staphylothermus marinus; settings: mixed with excess metal complex, stirred at least 1 hour, solvent replaced via size exclusion filters; FIG. 2 and 3
Description: After leaving the mixed solution stirred for at least 1 hour, the solvent containing RHCC, the metal complex and the buffer or any other supporting salt, the solvent together with any excess metal complex and salt is replaced via size exclusion filters by a solvent NOT containing any metal complex. The result of such an experiment is plotted in FIG. 2. […] In combination with the x-ray structures a location of HgI4^2− inside the cavities in solution can be concluded. […] According to the crystal structure, incorporation into the cavities of RHCC can be concluded for cisplatin.

[2] = system: IL-6-dependent BAF/3 cell line; test: biological activity on the IL-6-dependent BAF/3 cell line; type: cell-based
From the text: The calculated molecular mass of RHCC-IL-6 monomer is 28.3 kDa. […] The corresponding value for the tetramer is […].

[3] = system: RHCC peptide; test: NMR and UV-Vis absorption experiments on incorporation of metal ions in solution; type: binding, Staphylothermus marinus
From the text: For the addition of electrons according to reaction (4), electrochemical or photoelectrochemical reduction (with e.g. [Ru(bpy)3]^2+) may be used, although the simple addition of a chemical reducing agent (e.g. NaBH4) is also possible.

[4] = system: RHCC; test: localisation by UV-Vis spectroscopy (solvatochromic effect); type: binding, Staphylothermus marinus; settings: tris-buffer solution with RHCC compared with water, methanol, water/methanol 50/50; FIG. 1
Description: The location of a drug inside the cavities can be detected by techniques sensitive to the local microscopic environment of the molecule, e.g. the drug. For example the absorption of visible light (UV-Vis spectroscopy—solvatochromic effect) can be used to probe the local environment of e.g. […] (FIG. 1). The position of the absorption peak of […] is measured in water (FIG. 1—Plot A), in methanol (FIG. 1, Plot C), water/methanol (50/50) (FIG. 1—Plot B) and in a mixture with the peptide (FIG. 1—Plot E).

Row | Compound | interaction of metal complex with RHCC after filtering off excess complex [1] | biological activity on IL-6-dependent BAF/3 cell line [2] | incorporation of the metal ion into RHCC peptide in solution [3] | local environment of the complex when mixed with the peptide (absorption peak position) [4]
1 | N.N.[Cl][Pt][Cl] [cisplatin] | strong interaction | – | – | –
2 | RHCC-IL-6 fusion molecule: fusion protein: histidine tag, human interleukin-6 sequence, GS linker, RHCC sequence; forms a tetramer | – | full biological activity | – | –
3 | [Cl][Pt-2]([Cl])([Cl])[Cl] [[PtCl4]^−] | – | – | incorporates the metal ion in solution | –
4 | [I][Hg-2]([I])([I])[I] [HgI4^2−] | strong enough to prevent HgI4^2− from being filtered from the solution | – | incorporates the metal ion in solution | resides in a hydrophobic environment
